{"source": "patent US10730863B2", "about": "“Bridged bicyclic compounds as farnesoid X receptor modulators” (BRISTOL-MYERS SQUIBB COMPANY, priority 2017, dated 2020)", "biological_target": "FXR (Homo sapiens (Human), UniProt Q96RI1)", "sequence (Q96RI1 262-486)": "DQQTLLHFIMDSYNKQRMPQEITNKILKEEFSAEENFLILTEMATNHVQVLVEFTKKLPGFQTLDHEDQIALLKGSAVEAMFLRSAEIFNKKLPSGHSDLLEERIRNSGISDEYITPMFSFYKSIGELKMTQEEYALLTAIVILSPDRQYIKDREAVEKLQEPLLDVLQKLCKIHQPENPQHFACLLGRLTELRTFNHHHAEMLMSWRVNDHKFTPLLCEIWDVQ", "assay": "FXR EC50 (FXR agonist activity reported with each example)", "format": "cell-based", "data": [{"smiles": "Clc1cccc(Cl)c1-c1noc(C2CC2)c1COC12CCC(c3nc4ccc(-c5nnn[nH]5)cc4s3)(CC1)CC2", "note": "[Example 66, 4-(((4-(6-(1H-tetrazol-5-yl)benzo[d]thiazol-2-yl)bicyclo[2.2.2]octan-1-yl)oxy)methyl)-5-cyclopropyl-3-(2,6-dichlorophenyl)isoxazole]", "values": [{"measurement": "EC50", "result": 0.39, "unit": "µM"}]}, {"smiles": "O=C(O)c1cc(C(F)(F)F)c2cc(C#CC34CCC(OCc5c(-c6c(Cl)cncc6Cl)noc5C5CC5)(CC3)CC4)ccc2n1", "note": "[Example 364]", "values": [{"measurement": "EC50", "result": 0.042, "unit": "µM"}]}, {"smiles": "COc1cc(C(=O)O)nc2ccc(OCC34CCC(OCc5c(-c6ccccc6C(F)(F)F)noc5C5CC5)(CC3)CC4)cc12", "note": "[Example 289]", "values": [{"measurement": "EC50", "result": 0.15, "unit": "µM"}]}, {"smiles": "O=C(O)c1ccc(C(F)(F)F)c2nc(C34CCC(OCc5c(-c6c(Cl)cncc6Cl)noc5C5CC5)(CC3)CC4)ccc12", "note": "[Example 398]", "values": [{"measurement": "EC50", "result": 0.03, "unit": "µM"}]}, {"smiles": "O=C(O)c1cnc(C#CC23CCC(OCc4c(-c5c(Cl)cncc5Cl)noc4C4CC4)(CC2)CC3)c(F)c1", "note": "[Example 379]", "values": [{"measurement": "EC50", "result": 0.24, "unit": "µM"}]}, {"smiles": "O=C(O)CC1CCN(C(=O)C23CCC(OCc4c(-c5c(Cl)cccc5Cl)noc4C4CC4)(CC2)CC3)CC1", "note": "[Example 145, 2-(1-(4-((5-cyclopropyl-3-(2,6-dichlorophenyl)isoxazol-4-yl)methoxy)bicyclo[2.2.2]octane-1-carbonyl)piperidin-4-yl)acetic acid]", "values": [{"measurement": "EC50", "result": 3.8, "unit": "µM"}]}, {"smiles": "COc1cc(Cl)c2nc(C34CCC(OCc5c(-c6c(Cl)cncc6Cl)noc5C5CC5)(CC3)CC4)ccc2c1C(=O)O", "note": "[Example 426, 8-chloro-2-(4-((5-cyclopropyl-3-(3,5-dichloropyridin-4-yl)isoxazol-4-yl)methoxy)bicyclo[2.2.2]octan-1-yl)-6-methoxyquinoline-5-carboxy c acid]", "values": [{"measurement": "EC50", "result": 0.012, "unit": "µM"}]}, {"smiles": "O=C(O)c1ccc(-c2noc(C34CCC(COCc5c(-c6ccccc6OC(F)(F)F)noc5C5CC5)(CC3)CO4)n2)cc1", "note": "[Example 209, 4-(5-(4-(((5-cyclopropyl-3-(2-(trifluoromethoxy)phenyl)isoxazol-4-yl)methoxy)methyl)-2-oxabicyclo[2.2.2]octan-1-yl)-1,2,4-oxadiazol-3-yl)benzoic acid]", "values": [{"measurement": "EC50", "result": 0.47, "unit": "µM"}]}, {"smiles": "O=C(O)c1cnc(N2CC(F)C2)c(C#CC23CCC(OCc4c(-c5c(Cl)cncc5Cl)noc4C4CC4)(CC2)CC3)c1", "note": "[Example 523, 5-((4-((5-cyclopropyl-3-(3,5-dichloropyridin-4-yl)isoxazol-4-yl)methoxy)bicyclo[2.2.2]octan-1-yl)ethynyl)-6-(3-fluoroazetidin-1-yl)nicotinic acid]", "values": [{"measurement": "EC50", "result": 0.024, "unit": "µM"}]}, {"smiles": "O=C(O)c1ccc(OC2COC2)c2nc(C34CCC(OCc5c(-c6c(Cl)cncc6Cl)noc5C5CC5)(CC3)CC4)ccc12", "note": "[Example 406]", "values": [{"measurement": "EC50", "result": 0.054, "unit": "µM"}]}, {"smiles": "O=C(O)c1ccc2nc(OCC34CCC(OCc5c(-c6c(Cl)cncc6Cl)noc5C5CC5)(CC3)CC4)ccc2n1", "note": "[Example 298, 6-((4-((5-cyclopropyl-3-(3,5-dichloropyridin-4-yl)isoxazol-4-yl)methoxy)bicyclo[2.2.2]octan-1-yl)methoxy)-1,5-naphthyridine-2-carboxylic acid]", "values": [{"measurement": "EC50", "result": 0.063, "unit": "µM"}]}, {"smiles": "COC(=O)c1ccc(-c2noc(C34CCC(OCc5c(-c6ccccc6OC(F)(F)F)noc5C(C)C)(CC3)CC4)n2)cc1", "note": "[Example 35]", "values": [{"measurement": "EC50", "result": 2.4, "unit": "µM"}]}, {"smiles": "O=C(O)c1cnc2ccc(OCC34CCC(OCc5c(-c6c(Cl)cncc6Cl)noc5C5CC5)(CC3)CC4)nn12", "note": "[Example 466, 6-((4-((5-cyclopropyl-3-(3,5-dichloropyridin-4-yl)isoxazol-4-yl)methoxy)bicyclo[2.2.2]octan-1-yl)methoxy)imidazo[1,2-b]pyridazine-3-carboxylic acid]", "values": [{"measurement": "EC50", "result": 0.39, "unit": "µM"}]}, {"smiles": "NC(=O)c1cnc(OCC23CCC(OCc4c(-c5c(Cl)cncc5Cl)noc4C4CC4)(CC2)CC3)c(C(F)(F)F)c1", "note": "[Example 278, 6-((4-((5-cyclopropyl-3-(3,5-dichloropyridin-4-yl)isoxazol-4-yl)methoxy)bicyclo[2.2.2]octan-1-yl)methoxy)-5-(trifluoromethyl)nicotinamide]", "values": [{"measurement": "EC50", "result": 0.62, "unit": "µM"}]}, {"smiles": "O=C(O)c1ccc(C2CC2)c2nc(C34CCC(OCc5c(-c6c(Cl)cncc6Cl)noc5C5CC5)(CC3)CC4)ccc12", "note": "[Example 385, 8-cyclopropyl-2-(4-((5-cyclopropyl-3-(3,5-dichloropyridin-4-yl)isoxazol-4-yl)methoxy)bicyclo[2.2.2]octan-1-yl)quinoline-5-carboxylic acid]", "values": [{"measurement": "EC50", "result": 0.013, "unit": "µM"}]}, {"smiles": "O=C(O)[C@@H]1CCC[C@H](OCC23CCC(OCc4c(-c5ccccc5OC(F)(F)F)noc4C4CC4)(CC2)CC3)C1", "note": "[Example 80]", "values": [{"measurement": "EC50", "result": 5.1, "unit": "µM"}]}, {"smiles": "COC(=O)c1ccc(-c2noc(C34CCC(C=Cc5c(-c6c(Cl)cccc6Cl)noc5C5CC5)(CC3)CC4)n2)cc1", "note": "[Example 161]", "values": [{"measurement": "EC50", "result": 0.95, "unit": "µM"}]}, {"smiles": "O=C(O)c1coc(C23CCC(COCc4c(-c5c(Cl)cccc5Cl)noc4C4CC4)(CC2)CC3)n1", "note": "[Example 177, 2-(4-(((5-cyclopropyl-3-(2,6-dichlorophenyl)isoxazol-4-yl)methoxy)methyl)bicyclo[2.2.2]octan-1-yl)oxazole-4-carboxylic acid]", "values": [{"measurement": "EC50", "result": 1.8, "unit": "µM"}]}, {"smiles": "CS(=O)(=O)NC(=O)c1ccc(-c2noc(C34CCC(OCc5c(-c6c(Cl)cccc6Cl)noc5C5CC5)(CC3)CC4)n2)cc1", "note": "[Example 3, 4-(5-(4-((5-cyclopropyl-3-(2,6-dichlorophenyl)isoxazol-4-yl)methoxy)bicyclo[2.2.2]octan-1-yl)-1,2,4-oxadiazol-3-yl)-N-(methylsulfonyl)benzamide]", "values": [{"measurement": "EC50", "result": 0.89, "unit": "µM"}]}, {"smiles": "O=C(O)c1cc(OCC23CCC(COCc4c(-c5c(Cl)cncc5Cl)noc4C4CC4)(CC2)CC3)cc(C(F)(F)F)c1", "note": "[Example 464, 3-((4-(((5-cyclopropyl-3-(3,5-dichloropyridin-4-yl)isoxazol-4-yl)methoxy)methyl)bicyclo[2.2.2]octan-1-yl)methoxy)-5-(trifluoromethyl)benzoic acid]", "values": [{"measurement": "EC50", "result": 0.3, "unit": "µM"}]}, {"smiles": "Cn1cc(C(=O)O)c2ccc(OCC34CCC(OCc5c(-c6c(Cl)cncc6Cl)noc5C5CC5)(CC3)CC4)cc21", "note": "[Example 97, 6-((4-((5-cyclopropyl-3-(3,5-dichloropyridin-4-yl)isoxazol-4-yl)methoxy)bicyclo[2.2.2]octan-1-yl)methoxy)-1-methyl-1H-indole-3-carboxylic acid]", "values": [{"measurement": "EC50", "result": 0.028, "unit": "µM"}]}, {"smiles": "O=C(O)c1cnc(OCC23CCC(OCc4c(-c5c(Cl)cncc5Cl)noc4C4CC4)(CC2)CC3)cc1C(F)(F)F", "note": "[Example 283]", "values": [{"measurement": "EC50", "result": 0.015, "unit": "µM"}]}, {"smiles": "Cc1nc(C23CCC(/C=C/c4c(-c5c(Cl)cncc5Cl)noc4C4CC4)(CC2)CC3)sc1C(=O)O", "note": "[Example 509, (E)-2-(4-(2-(5-cyclopropyl-3-(3,5-dichloropyridin-4-yl)isoxazol-4-yl)vinyl)bicyclo[2.2.2]octan-1-yl)-4-methylthiazole-5-carboxylic acid]", "values": [{"measurement": "EC50", "result": 0.04, "unit": "µM"}]}, {"smiles": "FC(F)(F)Oc1ccccc1-c1noc(C2CC2)c1COC12CCC(/C=C/c3cccc(-c4nnn[nH]4)c3)(CC1)CC2", "note": "[Example 8, (E)-4-(((4-(3-(1H-tetrazol-5-yl)styryl)bicyclo[2.2.2]octan-1-yl)oxy)methyl)-5-cyclopropyl-3-(2-(trifluoromethoxy)phenyl)isoxazole]", "values": [{"measurement": "EC50", "result": 0.38, "unit": "µM"}]}, {"smiles": "O=C(O)c1ccc(-c2noc(C34CCC(OCc5c(-c6ccccc6OC(F)(F)F)noc5C5CC5)(CC3)CC4)n2)nc1", "note": "[Example 42]", "values": [{"measurement": "EC50", "result": 1.5, "unit": "µM"}]}, {"smiles": "O=C(O)c1cc(OCC2CCC2)c2cc(OCC34CCC(OCc5c(-c6c(Cl)cncc6Cl)noc5C5CC5)(CC3)CC4)ccc2n1", "note": "[Example 353]", "values": [{"measurement": "EC50", "result": 0.011, "unit": "µM"}]}, {"smiles": "CN(C)c1cc(-c2noc(C34CCC(OCc5c(-c6c(Cl)cncc6Cl)noc5C5CC5)(CC3)CC4)n2)cc(C(=O)O)n1", "note": "[Example 262, 4-(5-(4-((5-cyclopropyl-3-(3,5-dichloropyridin-4-yl)isoxazol-4-yl)methoxy)bicyclo[2.2.2]octan-1-yl)-1,2,4-oxadiazol-3-yl)-6-(dimethylamino)picolinic acid]", "values": [{"measurement": "EC50", "result": 0.053, "unit": "µM"}]}, {"smiles": "O=C(O)c1cc(C#CC23CCC(OCc4c(-c5c(Cl)cncc5Cl)noc4C4CC4)(CC2)CC3)cn2ccnc12", "note": "[Example 404]", "values": [{"measurement": "EC50", "result": 0.14, "unit": "µM"}]}, {"smiles": "O=C(O)c1cc(-c2noc(C34CCC(OCc5c(-c6c(Cl)cncc6Cl)noc5C5CC5)(CC3)CC4)n2)ccc1F", "note": "[Example 233, 5-(5-(4-((5-cyclopropyl-3-(3,5-dichloropyridin-4-yl)isoxazol-4-yl)methoxy)bicyclo[2.2.2]octan-1-yl)-1,2,4-oxadiazol-3-yl)-2-fluorobenzoic acid]", "values": [{"measurement": "EC50", "result": 0.092, "unit": "µM"}]}, {"smiles": "COc1ccc(-c2noc(C34CCC(/C=C/c5c(-c6c(Cl)cncc6Cl)noc5C5CC5)(CC3)CC4)n2)cc1C(=O)O", "note": "[Example 437, (E)-5-(5-(4-(2-(5-cyclopropyl-3-(3,5-dichloropyridin-4-yl)isoxazol-4-yl)vinyl)bicyclo[2.2.2]octan-1-yl)-1,2,4-oxadiazol-3-yl)-2-methoxybenzoic acid]", "values": [{"measurement": "EC50", "result": 0.023, "unit": "µM"}]}, {"smiles": "O=C(O)c1ccc(-c2noc(C34CCC(OCc5c(-c6ccccc6OC(F)(F)F)noc5C5CC5)(CC3)CC4)n2)cc1", "note": "[Example 2, 4-(5-(4-((5-cyclopropyl-3-(2-(trifluoromethoxy)phenyl)isoxazol-4-yl)methoxy)bicyclo[2.2.2]octan-1-yl)-1,2,4-oxadiazol-3-yl)benzoic acid]", "values": [{"measurement": "EC50", "result": 0.17, "unit": "µM"}]}, {"smiles": "O=C(O)Cc1noc(C23CCC(OCc4c(-c5c(Cl)cccc5Cl)noc4C4CC4)(CC2)CC3)n1", "note": "[Example 72, 2-(5-(4-((5-cyclopropyl-3-(2,6-dichlorophenyl)isoxazol-4-yl)methoxy)bicyclo[2.2.2]octan-1-yl)-1,2,4-oxadiazol-3-yl)acetic acid]", "values": [{"measurement": "EC50", "result": 3.1, "unit": "µM"}]}, {"smiles": "O=C(O)c1cc(C(F)(F)F)c2cc(OCC34CCC(OCc5c(-c6c(Cl)cccc6Cl)noc5C5CC5)(CC3)CC4)ccc2n1", "note": "[Example 100, 6-((4-((5-cyclopropyl-3-(2,6-dichlorophenyl)isoxazol-4-yl)methoxy)bicyclo[2.2.2]octan-1-yl)methoxy)-4-(trifluoromethyl) quinoline-2-carboxylic acid]", "values": [{"measurement": "EC50", "result": 0.007, "unit": "µM"}]}, {"smiles": "Clc1cccc(Cl)c1-c1noc(C2CC2)c1COC12CCC(c3nc(-c4nn[nH]n4)no3)(CC1)CC2", "note": "[Example 267, 5-(4-((5-cyclopropyl-3-(2,6-dichlorophenyl)isoxazol-4-yl)methoxy)bicyclo[2.2.2]octan-1-yl)-3-(2H-tetrazol-5-yl)-1,2,4-oxadiazole]", "values": [{"measurement": "EC50", "result": 4.4, "unit": "µM"}]}]}
